The values that follow come from patent US20240252650A1, “LIPID COMPOUNDS AND LIPID NANOPARTICLE COMPOSITIONS” (SUZHOU ABOGEN BIOSCIENCES CO., LTD., priority 2021, published 2024).

The nature of data set [1]: Lipid nanoparticle size and polydispersity by dynamic light scattering (Malvern Zetasizer Nano ZS). It counts as physicochemical. The note with it: LNP: cationic lipid/DSPC/cholesterol/PEG-lipid 50:10:38.5:1.5, mRNA; table of Example 15. Summed up:
(§1)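 Lipids 50:10:38.5:1.5 (cationic:DSPC:chol:PEG) in EtOH + mRNA in citrate pH 4, 1:3 vol, microfluidic, 9–30 mL/min; total lipid:mRNA ~10:1–30:1 w/w. Dialysis to DPBS, 0.2 μm filter. DLS 173° backscatter; Ribogreen encapsulation.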

In another data set the test system is female Balb/c mice. The experiment in a line: Animal study: LNPs encapsulating luciferase mRNA, tail vein injection, organ bioluminescence imaging (IVIS Spectrum CT). The format is in vivo. As to conditions: luciferase mRNA LNP, 0.25 mg/kg tail vein. The method, then:
Lipid nanoparticles comprising certain compounds provided herein encapsulating luciferase encoding (luciferase) mRNA were systemically administered to 6-8 week old female Balb/c mice (Charles River Lab, ZheJiang) at 0.25 mg/kg dose by tail vein injection, and mice blood were sampled at specific time points (e.g., 6 hours) post administration. Optical imaging was performed using the IVIS Spectrum CT device (PerkinElmer Inc., Paris, France). The luminescence level was evaluated by an ROI applied to the injection site zone (Living Image software, PerkinElmer Inc., Paris, France).
Radiance of heart, liver, spleen, lung, kidney, brain and bone marrow were taken at 6 h. Dissected organs were placed on a black sheet and imaged with IVIS Spectrum CT (PerkinElmer, Hopkinton, MA). To quantify bioluminescence emission signal, identical regions of interest (ROI) were positioned to encircle each organ region, the imaging signal was quantitated as average radiance (photons/s/cm2/steradian).

A short description of data set [2]: Apparent pKa of LNP formulations by TNS fluorescence assay. The format is physicochemical. As to conditions: LNP cationic lipid/DSPC/cholesterol/DMG-PEG 50/10/38.5/1.5 mol %, table of Example 15. The procedure, abridged: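 LNPs (cationic lipid/DSPC/cholesterol/DMG-PEG 50/10/38.5/1.5 mol %) at 0.1 mg/ml total lipid in citrate/phosphate/borate buffers, pH 3–9, with TNS added; fluorescence read at room temperature (ex 325, em 435 nm). Apparent pKa is the pH giving half-maximal fluorescence from a sigmoidal fit.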

Data set [3] can be described thus: Encapsulation efficiency of lipid nanoparticles (Quant-it Ribogreen RNA quantification assay). The format is physicochemical. The note with it: LNP: cationic lipid/DSPC/cholesterol/PEG-lipid 50:10:38.5:1.5, mRNA; table of Example 15. Summed up: as §1

Each structure is given as a SMILES string.

On to `CCCCC/C=C\C/C=C\CCCCCCCC(=O)OCC(COC(=O)CCCCN(CCCCCCCO)C1CCC1)COC(=O)CCCC(COC(=O)CCCCCCC)COC(=O)CCCCCCC` (stereo not drawn) [Compound 129], for which, in data set [1], the polydispersity was 0.033 and the “size (nm)” value is recorded as 138.5 nm. For the same compound, the “luciferase expression in bone marrow (in words)” value in the data set on female Balb/c mice (6 h) is “mild expression”. Moreover, in the data set with female Balb/c mice (bone marrow at 6 h), the “bone marrow* Avg Radiance” value was 2.12 E+04 p/s/cm^2/sr. Further, the “brain* Avg Radiance” value in the data set with female Balb/c mice (dissected brain at 6 h) is 12.49 E+04 p/s/cm^2/sr. Also, in the data set with female Balb/c mice (dissected heart at 6 h), the “heart* Avg Radiance” value is 13.05 E+04 p/s/cm^2/sr. For the same compound, in the data set on female Balb/c mice (dissected kidney at 6 h), the “kidney* Avg Radiance” value is recorded as 17.53 E+04 p/s/cm^2/sr. Besides, the “liver* Avg Radiance” value in the data set with female Balb/c mice (dissected liver at 6 h) is on record as 30.05 E+06 p/s/cm^2/sr. For the same compound, the “lung* Avg Radiance” value with female Balb/c mice (dissected lung at 6 h) is on record as 11 E+04 p/s/cm^2/sr. Further, in the data set on female Balb/c mice (dissected spleen at 6 h), the “spleen* Avg Radiance” value is recorded as 6.57 E+06 p/s/cm^2/sr. In data set [2], the “Apparant Pka” value is recorded as 6.477. Moreover, the “Encapsulation Efficiency” value in data set [3] amounted to 87.05%.
